# Values quoted from earlier work in patent publication US9109008B2, “Tubulysin compounds, methods of making and use” (priority 2013, dated 2015).
# System: cancer cell lines
# Details: Kaur et al. 2006
compound,measurement,value
CC[C@H](C)[C@H](NC(=O)[C@H]1CCCCN1C)C(=O)N(COC(=O)CC(C)C)[C@H](C[C@@H](OC(C)=O)c1nc(C(=O)N[C@@H](Cc2ccc(O)cc2)C[C@H](C)C(=O)O)cs1)C(C)C [tubulysin A],antiproliferative potency compared with other antimitotic agents,more potent than other antimitotic agents such as paclitaxel and vinblastine
